ChEMBL document CHEMBL1143264 (Bioorg Med Chem Lett, 2009)

What was measured:
Type in all cases: cell membranes
[1] = molecular target: Neuronal acetylcholine receptor; alpha4/beta2 (Rattus norvegicus, UniProt P09483+P12390); assay: Displacement of [3H]epibatidine from alpha-4-beta-2 nAchR in rat brain cortex membrane
[2] = molecular target: Neuronal acetylcholine receptor subunit alpha-7 (Rattus norvegicus, UniProt Q05941); assay: Displacement of [125I]alpha-Bungarotoxin from alpha-7 nAchR in rat brain cortex membrane
Neuronal acetylcholine receptor subunit alpha-7, sequence (Q05941 whole entry): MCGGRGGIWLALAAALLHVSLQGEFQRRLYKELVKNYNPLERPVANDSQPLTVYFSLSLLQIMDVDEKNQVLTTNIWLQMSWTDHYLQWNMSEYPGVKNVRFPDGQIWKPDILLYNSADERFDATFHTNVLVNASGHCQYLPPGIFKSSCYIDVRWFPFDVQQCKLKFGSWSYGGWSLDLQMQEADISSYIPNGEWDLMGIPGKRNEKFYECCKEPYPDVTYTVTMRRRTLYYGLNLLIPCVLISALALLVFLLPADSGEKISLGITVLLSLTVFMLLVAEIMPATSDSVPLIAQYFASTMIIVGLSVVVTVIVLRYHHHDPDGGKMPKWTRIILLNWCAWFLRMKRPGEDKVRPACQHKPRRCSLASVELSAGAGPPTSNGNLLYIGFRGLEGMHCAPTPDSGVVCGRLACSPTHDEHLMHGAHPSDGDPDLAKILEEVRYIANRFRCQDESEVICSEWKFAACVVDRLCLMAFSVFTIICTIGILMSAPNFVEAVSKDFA

[3] = molecular target: T1, Adrenergic receptor alpha-2 (Rattus norvegicus, UniProt P22086+P19328+P22909); assay: Displacement of [3H]RS 79948-197 from alpha-2 adrenergic receptor in rat brain cortex membrane
T1 sequence (P22086 whole entry): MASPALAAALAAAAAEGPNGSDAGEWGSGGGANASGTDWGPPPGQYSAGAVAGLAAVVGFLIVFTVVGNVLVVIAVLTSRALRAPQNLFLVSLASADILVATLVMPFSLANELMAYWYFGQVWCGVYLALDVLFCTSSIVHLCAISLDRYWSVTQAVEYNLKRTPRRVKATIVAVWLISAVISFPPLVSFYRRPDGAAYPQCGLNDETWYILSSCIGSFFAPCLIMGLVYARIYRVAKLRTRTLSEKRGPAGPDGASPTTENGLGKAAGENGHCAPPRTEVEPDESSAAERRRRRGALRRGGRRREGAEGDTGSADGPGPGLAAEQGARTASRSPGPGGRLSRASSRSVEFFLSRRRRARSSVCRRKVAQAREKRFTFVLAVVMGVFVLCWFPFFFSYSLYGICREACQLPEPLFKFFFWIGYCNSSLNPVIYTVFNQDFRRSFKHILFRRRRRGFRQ
T1 sequence (P19328 whole entry): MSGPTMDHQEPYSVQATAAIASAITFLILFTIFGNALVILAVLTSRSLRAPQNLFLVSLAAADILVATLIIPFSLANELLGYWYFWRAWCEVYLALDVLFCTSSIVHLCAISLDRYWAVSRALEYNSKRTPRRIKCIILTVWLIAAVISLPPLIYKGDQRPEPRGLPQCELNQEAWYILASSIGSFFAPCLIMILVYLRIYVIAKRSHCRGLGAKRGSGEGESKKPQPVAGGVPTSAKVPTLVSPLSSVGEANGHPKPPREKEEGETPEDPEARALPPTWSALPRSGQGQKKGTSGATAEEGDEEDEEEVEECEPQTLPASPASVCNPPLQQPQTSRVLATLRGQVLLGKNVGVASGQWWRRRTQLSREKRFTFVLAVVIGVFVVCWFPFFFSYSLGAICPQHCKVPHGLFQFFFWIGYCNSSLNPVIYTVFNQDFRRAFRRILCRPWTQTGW
T1 sequence (P22909 whole entry): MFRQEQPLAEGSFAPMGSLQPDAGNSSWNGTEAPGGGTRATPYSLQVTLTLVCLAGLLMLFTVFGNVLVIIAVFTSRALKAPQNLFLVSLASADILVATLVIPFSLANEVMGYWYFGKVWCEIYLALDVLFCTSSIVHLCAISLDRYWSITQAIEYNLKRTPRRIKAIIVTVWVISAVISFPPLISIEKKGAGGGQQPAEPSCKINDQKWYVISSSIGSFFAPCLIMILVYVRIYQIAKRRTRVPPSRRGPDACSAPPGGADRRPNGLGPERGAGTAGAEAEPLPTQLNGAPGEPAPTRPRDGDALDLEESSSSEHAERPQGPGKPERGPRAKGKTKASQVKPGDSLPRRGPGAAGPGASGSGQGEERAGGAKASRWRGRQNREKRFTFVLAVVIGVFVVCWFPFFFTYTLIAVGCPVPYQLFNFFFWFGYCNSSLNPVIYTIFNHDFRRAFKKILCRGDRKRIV

Neuronal acetylcholine receptor; alpha4/beta2, sequence (P09483 whole entry): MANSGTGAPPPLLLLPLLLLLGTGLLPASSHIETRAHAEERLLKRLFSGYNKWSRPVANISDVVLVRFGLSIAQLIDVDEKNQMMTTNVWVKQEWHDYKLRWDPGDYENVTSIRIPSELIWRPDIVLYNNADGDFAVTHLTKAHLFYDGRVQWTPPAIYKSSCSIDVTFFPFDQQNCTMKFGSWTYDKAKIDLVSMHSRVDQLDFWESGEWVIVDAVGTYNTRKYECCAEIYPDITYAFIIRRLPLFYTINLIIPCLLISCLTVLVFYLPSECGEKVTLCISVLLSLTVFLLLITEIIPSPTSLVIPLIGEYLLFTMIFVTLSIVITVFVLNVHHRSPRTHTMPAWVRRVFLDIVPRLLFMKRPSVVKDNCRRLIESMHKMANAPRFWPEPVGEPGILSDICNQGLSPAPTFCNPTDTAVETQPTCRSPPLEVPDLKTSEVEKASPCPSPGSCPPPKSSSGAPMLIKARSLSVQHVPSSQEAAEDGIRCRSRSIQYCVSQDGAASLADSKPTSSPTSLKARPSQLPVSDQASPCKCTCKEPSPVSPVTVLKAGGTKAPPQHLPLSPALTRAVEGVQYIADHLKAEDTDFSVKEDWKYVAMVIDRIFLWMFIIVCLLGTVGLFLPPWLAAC
Neuronal acetylcholine receptor; alpha4/beta2, sequence (P12390 whole entry): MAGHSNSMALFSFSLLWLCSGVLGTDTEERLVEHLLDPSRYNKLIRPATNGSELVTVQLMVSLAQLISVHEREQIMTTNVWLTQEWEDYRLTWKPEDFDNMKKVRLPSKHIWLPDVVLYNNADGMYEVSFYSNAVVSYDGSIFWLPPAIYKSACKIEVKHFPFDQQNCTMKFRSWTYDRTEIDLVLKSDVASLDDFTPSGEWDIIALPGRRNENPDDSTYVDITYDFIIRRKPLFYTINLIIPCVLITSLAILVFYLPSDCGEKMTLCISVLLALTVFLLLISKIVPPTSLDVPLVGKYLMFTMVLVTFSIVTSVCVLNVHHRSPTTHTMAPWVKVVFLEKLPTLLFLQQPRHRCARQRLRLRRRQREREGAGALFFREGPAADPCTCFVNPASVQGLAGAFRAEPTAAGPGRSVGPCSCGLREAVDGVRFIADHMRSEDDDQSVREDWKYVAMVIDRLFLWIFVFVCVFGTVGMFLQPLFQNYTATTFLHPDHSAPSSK

Cl.c1ccc2c(c1)OC[C@@H]([C@H]1CCCN1)O2
Ki [1]: 11.6 µM
Ki [2]: 27 µM
Ki [3]: 6.33 µM

CN1CCC[C@H]1[C@@H]1COc2ccccc2O1
Ki [1]: 0.26 µM
Ki [2]: 21 µM

CN1CCC[C@@H]1[C@@H]1CNC(=O)O1
Ki [1]: 37 µM
Ki [2]: 43 µM

CN1CCC[C@H]1[C@H]1CNC(=O)O1
Ki [1]: 35 µM
Ki [2]: 100 µM

CN1CCC[C@@H]1[C@H]1CNC(=O)O1
Ki [1]: 40 µM
Ki [2]: 100 µM

Cl.c1ccc2c(c1)OC[C@@H]([C@@H]1CCCN1)O2
Ki [1]: 2.1 µM
Ki [2]: 36 µM
Ki [3]: 1.35 µM

CN1CCC[C@@H]1[C@H]1COc2ccccc2O1
Ki [1]: 12.5 µM
Ki [2]: 35 µM

Cl.c1ccc2c(c1)OC[C@H]([C@H]1CCCN1)O2
Ki [1]: 88 µM
Ki [2]: 14.7 µM
Ki [3]: 14 µM

Cl.c1ccc2c(c1)OC[C@H]([C@@H]1CCCN1)O2
Ki [1]: 14.4 µM
Ki [2]: 32.2 µM
Ki [3]: 0.64 µM

CN1CCC[C@H]1[C@@H]1CNC(=O)O1
Ki [1]: 2.7 µM
Ki [2]: 21 µM

CN1CCC[C@H]1[C@H]1COc2ccccc2O1.Cl
Ki [1]: 0.47 µM
Ki [2]: 14.6 µM
Ki [3]: 1.67 µM

CN1CCC[C@@H]1[C@@H]1COc2ccccc2O1.Cl
Ki [1]: 43.8 µM
Ki [2]: 14.8 µM
Ki [3]: 6.67 µM
